Data as given in ChEMBL document CHEMBL1201862, “PubChem BioAssay data set” (2004).
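96-well plates; 48 h exposure; 5 concentrations. Endpoints by linear interpolation between flanking doses. Not reached: highest tested concentration assigned. GI50: concentration for 50% inhibition of growth.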 Activity calls are given as the source filed them. No stated cut-off is given here; in the data, active = GI50 up to about 1.1 µM and inactive = higher.

Assays:
Experiment in all cases: growth of human tumour cells (NCI), 48 h
MDA-MB-435 = tested on: MDA-MB-435
TK-10 = tested on: TK-10
OVCAR-8 = tested on: OVCAR-8
HOP-62 = tested on: HOP-62
A498 = tested on: A498
SF-539 = tested on: SF-539
RXF 393 = tested on: RXF 393
HT-29 = tested on: HT-29
SNB-75 = tested on: SNB-75
NCI-H226 = tested on: NCI-H226
SF-268 = tested on: SF-268
T47D = tested on: T47D
MCF7 = tested on: MCF7
BT-549 = tested on: BT-549
IGROV-1 = tested on: IGROV-1
NCI-H23 = tested on: NCI-H23
UACC-257 = tested on: UACC-257
HCT-15 = tested on: HCT-15
SR = tested on: SR
ACHN = tested on: ACHN

Measured: GI50

O=C1C(Cl)=C(Cl)C(=O)N1c1ccc(F)cc1 [FLUOROIMIDE]
16.2 µM: HCT-15
inactive: MDA-MB-435 17.9 µM | TK-10 18.7 µM | OVCAR-8 21.1 µM | HOP-62 > 67.9 µM | A498 > 100 µM | SF-539 23.5 µM | RXF 393 22.5 µM | HT-29 22.5 µM | SNB-75 12.8 µM | NCI-H226 42.7 µM | SF-268 28.8 µM | T47D 17.8 µM | MCF7 20.7 µM | BT-549 16.5 µM | IGROV-1 18.6 µM | NCI-H23 17.5 µM | UACC-257 36.1 µM | SR 6.98 µM | ACHN 18.2 µM

CCOC(=O)/C=C(\C(=O)OCC)n1cnc2c(N)ncnc21
3.08 µM: HCT-15
inactive: MDA-MB-435 11.8 µM | TK-10 5.02 µM | OVCAR-8 7.45 µM | HOP-62 22.6 µM | A498 13.2 µM | SF-539 14.1 µM | RXF 393 12.6 µM | HT-29 6.68 µM | SNB-75 12.4 µM | NCI-H226 5.97 µM | SF-268 15.3 µM | T47D 2.92 µM | MCF7 2.64 µM | BT-549 12.1 µM | IGROV-1 10.8 µM | NCI-H23 13.7 µM | UACC-257 14.5 µM | SR 1.91 µM | ACHN 6.67 µM

CN1CCN(c2cc3nc4cc(O)cc(O)c4c(O)c3cc2N)CC1
active: SF-539 0.608 µM
inactive: MDA-MB-435 18.1 µM | TK-10 30.7 µM | OVCAR-8 26.2 µM | HOP-62 33.6 µM | A498 21.6 µM | RXF 393 20.7 µM | HT-29 23.2 µM | SNB-75 18.2 µM | NCI-H226 1.95 µM | SF-268 15.9 µM | T47D 21.6 µM | MCF7 17.7 µM | BT-549 28.6 µM | IGROV-1 20.2 µM | NCI-H23 40.6 µM | UACC-257 38.8 µM | SR 6.14 µM | ACHN 27.5 µM
67 µM: HCT-15

O=C1c2c(Br)sc(Br)c2[C@@H](Cl)[C@H]1Cl
inactive: MDA-MB-435 19.3 µM | TK-10 29 µM | OVCAR-8 15.1 µM | HOP-62 17.9 µM | A498 > 100 µM | SF-539 12.5 µM | RXF 393 15.5 µM | HT-29 28.4 µM | SNB-75 17.6 µM | NCI-H226 16.4 µM | SF-268 19.1 µM | T47D 19 µM | MCF7 21.5 µM | BT-549 20.6 µM | IGROV-1 17.7 µM | NCI-H23 12.9 µM | UACC-257 15.9 µM | SR 2.81 µM | ACHN 19.2 µM
19.7 µM: HCT-15

Cc1ccc(-c2cn3c(nc4ccccc43)c(C)n2)cc1
active: MCF7 0.578 µM
inactive: MDA-MB-435 16 µM | TK-10 43.9 µM | OVCAR-8 36 µM | HOP-62 30.8 µM | A498 19.8 µM | SF-539 > 54.3 µM | RXF 393 21.8 µM | HT-29 24.4 µM | SNB-75 > 47 µM | NCI-H226 34.3 µM | SF-268 > 46.6 µM | T47D 4.2 µM | BT-549 25.9 µM | IGROV-1 11.7 µM | NCI-H23 22.6 µM | UACC-257 > 100 µM | SR 21.5 µM | ACHN 30.3 µM
25.2 µM: HCT-15

CN(C)CCNC(=O)c1cccc2nc3cccc(F)c3nc12
1.16 µM: HCT-15
inactive: MDA-MB-435 1.56 µM | TK-10 2 µM | HOP-62 1.97 µM | A498 1.91 µM | SF-539 1.86 µM | RXF 393 1.54 µM | SNB-75 2.62 µM | NCI-H226 1.24 µM | SF-268 2.31 µM | T47D 3.31 µM | MCF7 1.48 µM | BT-549 2.23 µM | IGROV-1 1.6 µM | NCI-H23 1.5 µM | UACC-257 1.39 µM
active: OVCAR-8 0.843 µM | HT-29 0.867 µM | SR 0.57 µM | ACHN 0.484 µM

COC(=O)C12Oc3ccc(-c4ccc5c(c4O)C(O)=C4C(=O)CC(C)C(O)C4(C(=O)OC)O5)c(O)c3C(O)=C1C(=O)CC(C)C2O (stereo not given)
active: MDA-MB-435 0.0634 µM | TK-10 0.231 µM | OVCAR-8 0.094 µM | HOP-62 0.0644 µM | A498 0.544 µM | SF-539 0.055 µM | RXF 393 0.0877 µM | HT-29 0.0495 µM | SNB-75 0.241 µM | NCI-H226 0.416 µM | SF-268 0.0843 µM | T47D 0.25 µM | MCF7 0.151 µM | BT-549 0.262 µM | IGROV-1 0.104 µM | NCI-H23 0.0615 µM | UACC-257 0.073 µM | SR 0.0234 µM | ACHN 0.153 µM
0.216 µM: HCT-15

CC(C)(C)[Si](C)(C)Oc1ccc(C2CNC(=O)C23CCC(=O)N3Cc2ccccc2)cc1 (stereo not given)
12.8 µM: HCT-15
inactive: MDA-MB-435 12.4 µM | TK-10 13.2 µM | OVCAR-8 12.6 µM | HOP-62 20.5 µM | A498 12.2 µM | SF-539 16.7 µM | RXF 393 10.7 µM | HT-29 12.2 µM | SNB-75 17.8 µM | NCI-H226 18.9 µM | SF-268 12.6 µM | T47D 15.9 µM | MCF7 4.54 µM | BT-549 15.5 µM | IGROV-1 15.3 µM | NCI-H23 11.4 µM | UACC-257 12.4 µM | SR 7.96 µM | ACHN 15 µM

O=C(O)CCSC(CC1(c2ccc(Cl)cc2)NC(=O)CCS1)c1ccccc1 (stereo not given)
8.09 µM: HCT-15
inactive: MDA-MB-435 14.3 µM | TK-10 18.4 µM | OVCAR-8 19.9 µM | HOP-62 21.2 µM | A498 21.5 µM | SF-539 7.98 µM | RXF 393 21.7 µM | HT-29 17.3 µM | SNB-75 17.1 µM | NCI-H226 17.3 µM | SF-268 18 µM | T47D 16.1 µM | MCF7 3.87 µM | BT-549 17 µM | IGROV-1 12.1 µM | NCI-H23 20.9 µM | UACC-257 21.9 µM | SR 8.32 µM | ACHN 25.5 µM

CC(C)NC(=O)OCc1c(COC(=O)NC(C)C)c(-c2cc[n+](COC(=O)C(C)(C)C)cc2)n2c1CCC2
> 100 µM: HCT-15
inactive: MDA-MB-435 > 100 µM | TK-10 > 100 µM | OVCAR-8 > 100 µM | HOP-62 > 100 µM | A498 > 100 µM | SF-539 > 100 µM | RXF 393 > 100 µM | HT-29 > 100 µM | SNB-75 > 100 µM | NCI-H226 > 100 µM | SF-268 > 100 µM | T47D > 100 µM | MCF7 > 100 µM | BT-549 > 100 µM | IGROV-1 > 100 µM | NCI-H23 > 100 µM | UACC-257 > 100 µM | SR 19.1 µM | ACHN 61.9 µM

Cc1nc(-c2ccccc2)cn2c1nc1ccccc12
inactive: MDA-MB-435 19.2 µM | TK-10 29.3 µM | OVCAR-8 18.8 µM | HOP-62 20.9 µM | A498 15.3 µM | SF-539 23.1 µM | RXF 393 19.6 µM | HT-29 24.3 µM | SNB-75 17.2 µM | NCI-H226 17.5 µM | SF-268 28.5 µM | T47D 2.05 µM | MCF7 2.8 µM | BT-549 17.4 µM | IGROV-1 19.9 µM | NCI-H23 25.9 µM | UACC-257 29 µM | SR 27.2 µM | ACHN 21.7 µM
16.4 µM: HCT-15

Cn1c(-c2ccccc2)cc(-c2ccsc2)c1-c1ccsc1
inactive: MDA-MB-435 > 100 µM | TK-10 > 100 µM | OVCAR-8 > 100 µM | HOP-62 49.5 µM | A498 > 100 µM | SF-539 95.5 µM | RXF 393 33.3 µM | HT-29 67.3 µM | SNB-75 > 100 µM | NCI-H226 6.81 µM | SF-268 > 100 µM | T47D > 100 µM | MCF7 > 100 µM | BT-549 > 100 µM | IGROV-1 > 100 µM | NCI-H23 > 100 µM | UACC-257 > 100 µM | SR 9.66 µM | ACHN > 100 µM
> 100 µM: HCT-15
